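Where inhibition never reached the appropriate level, the endpoint shown equals the highest concentration tested. Otherwise, values were interpolated linearly from a five-concentration, 48-hour dose response in 96-well plates. Abbreviation: GI50, concentration required for 50% inhibition of growth. TGI: concentration producing complete growth inhibition.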
Experiments:
Assay in all cases: inhibition of tumour cell growth, NCI panel, 48 h
HCT-15 colon = test system: HCT-15 colon
SF-268 CNS = test system: SF-268 CNS
OVCAR-8 ovarian = test system: OVCAR-8 ovarian
DU-145 prostate = test system: DU-145 prostate
SF-295 CNS = test system: SF-295 CNS
NCI-H460 lung = test system: NCI-H460 lung
OVCAR-5 ovarian = test system: OVCAR-5 ovarian
SN12C renal = test system: SN12C renal
NCI-H226 lung = test system: NCI-H226 lung
EKVX NSCLC = test system: EKVX NSCLC

| SMILES | GI50 (HCT-15 colon) [µM] | TGI (HCT-15 colon) [µM] | GI50 (SF-268 CNS) [µM] | TGI (SF-268 CNS) [µM] | GI50 (OVCAR-8 ovarian) [µM] | TGI (OVCAR-8 ovarian) [µM] | GI50 (DU-145 prostate) [µM] | TGI (DU-145 prostate) [µM] | GI50 (SF-295 CNS) [µM] | TGI (SF-295 CNS) [µM] | GI50 (NCI-H460 lung) [µM] | TGI (NCI-H460 lung) [µM] | GI50 (OVCAR-5 ovarian) [µM] | TGI (OVCAR-5 ovarian) [µM] | GI50 (SN12C renal) [µM] | TGI (SN12C renal) [µM] | GI50 (NCI-H226 lung) [µM] | TGI (NCI-H226 lung) [µM] | GI50 (EKVX NSCLC) [µM] | TGI (EKVX NSCLC) [µM] |
| --- | --- | --- | --- | --- | --- | --- | --- | --- | --- | --- | --- | --- | --- | --- | --- | --- | --- | --- | --- | --- |
| O=C(O)CP(=O)(c1ccccc1)c1ccccc1.O=C(O)CP(=O)(c1ccccc1)c1ccccc1.[Cd] | 9.21 | 22.9 | 37.3 | > 100 | 32.7 | > 100 | 19.4 | 41.3 | 30.5 | > 100 | 3.9 | > 100 | 16 | 30.6 | 16.4 | 31.1 | 12.7 | 28.6 |  |  |
| O=C1C(Cl)=C(Nc2ccccn2)C(=O)c2ccccc21 | 3.54 | > 100 | 2.74 | 7.55 | 3.25 | 13 | 1.94 | 3.39 |  |  | 3.25 | 11.4 | 7.42 | 23.2 | 2.33 | 5.17 | 1.92 | 5.49 | 17.2 | 49.4 |
| [O]=[W](=[O])([OH])[OH] | > 100 | > 100 | > 100 | > 100 | > 100 | > 100 | > 100 | > 100 | > 100 | > 100 | > 100 | > 100 | > 100 | > 100 | > 100 | > 100 | > 100 | > 100 |  |  |
| COC(=O)C(C(=O)C(=O)Nc1ccc([N+](=O)[O-])cc1)c1nc2cc(C)c(C)cc2[nH]c1=O (stereo not given) |  | > 100 |  | > 100 |  |  |  |  |  | > 100 |  | > 100 |  | > 100 |  | > 100 |  | > 100 |  | > 100 |
| CC(C)N(C(=O)C12C3C4C5C3C1(C#N)C5C42)C(C)C (stereo not given) |  | > 100 |  | > 100 |  | > 100 |  |  |  | > 100 |  | > 100 |  | > 100 |  | > 100 |  | > 100 |  | > 100 |
| CC(=O)OC1CC(C)c2c(Cl)ncnc21 (stereo not given) | > 100 | > 100 | > 100 | > 100 | > 100 | > 100 | > 100 | > 100 |  |  | > 100 | > 100 | > 100 | > 100 | > 100 | > 100 | > 100 | > 100 |  |  |
| O=C(NCCCCCCNC(=O)NC1OCC(O)C(O)C1O)NC1OCC(O)C(O)C1O (stereo not given) |  | > 100 |  | > 100 |  | > 100 |  |  |  | > 100 |  | > 100 |  | > 100 |  | > 100 |  | > 100 |  | > 100 |
| O=C(Nc1cccc(-n2cc(-c3ccncc3)c(-c3ccc(O)c(Cl)c3)n2)c1)c1ccc(N2CCOCC2)c(C(F)(F)F)c1 | 1.21 | > 50 | > 50 | > 50 | 2.24 | > 50 | > 50 | > 50 | 1.24 | 4.32 | 1.82 | > 50 | > 50 | > 50 | > 50 | > 50 | > 50 | > 50 |  |  |
| CN1CCc2cc(O)c3cc2C1Cc1ccc(cc1)Oc1cc(ccc1O)CC1c2c(cc4c(c2O3)OCO4)CCN1C (stereo not given) |  | 60 |  | > 100 |  | 48.9 |  |  |  | 43.6 |  | > 100 |  | 87.7 |  | > 100 |  | 47.7 |  | 70.7 |
| CC(=O)OCc1c(C)c2ccccc2n1C(C)=O |  |  |  | > 100 |  | > 100 |  |  |  | > 100 |  |  |  | > 100 |  | > 100 |  | > 100 |  | > 100 |
| COc1cc2c3c(c1OCc1ccccc1)NCCC3NCC2 (stereo not given) |  | > 100 |  | > 100 |  | > 100 |  |  |  | > 100 |  | > 100 |  | > 100 |  | > 100 |  | > 100 |  | > 100 |
| Cc1ccc(S(=O)(=O)NC(=O)C#CCOC2CCCCO2)cc1 (stereo not given) |  | > 100 |  |  |  | > 100 |  |  |  | > 100 |  | > 100 |  | > 100 |  | > 100 |  | > 100 |  | > 100 |
| CCOC(=O)NN(C(=O)OCC)C(C(=O)c1ccc(Cl)cc1)=C1NCCN1 |  |  |  | > 100 |  | > 100 |  |  |  | > 100 |  | > 100 |  | > 100 |  | > 100 |  | > 100 |  | > 100 |
| CNC(=O)OCc1cc2ccncc2c2c1[nH]c1ccccc12 |  | > 100 |  | > 41.8 |  | > 100 |  |  |  | > 100 |  | > 100 |  | > 100 |  | > 100 |  | > 100 |  | > 100 |
| N#C/C(=C\c1ccc([N+](=O)[O-])s1)c1nc2cc(Br)ccc2s1 | 0.0707 | 0.264 | 0.468 | > 100 | 0.246 | 0.805 | 0.719 | > 100 |  | > 100 | 0.286 | 0.845 |  |  | 0.201 | 0.576 | 0.152 | 0.335 | 0.246 | 1.1 |
| Cc1cc2c(=O)c3ccccc3oc2c(C#N)c1C |  |  |  | > 100 |  | > 100 |  | > 100 |  | > 100 |  | > 100 |  | > 100 |  |  |  |  |  | > 100 |
| N#CC(C#N)=Cc1ccc(Oc2ccccc2)cc1 |  | > 100 |  | > 69.5 |  | 73.7 |  |  |  | 59.2 |  | > 100 |  | > 100 |  | 20.6 |  | > 72.8 |  | > 100 |
| O=C1CCCC(=O)C1C(=O)c1ccc(C(F)(F)F)cc1[N+](=O)[O-] | > 100 | > 100 | > 100 | > 100 | > 100 | > 100 | > 100 | > 100 | > 100 | > 100 | > 100 | > 100 | > 100 | > 100 | > 100 | > 100 | > 100 | > 100 |  |  |
